Experimental data as given in patent US10952999B2, “Inhibitor of cyclin-dependent kinase CDK9” (GENFLEET THERAPEUTICS (SHANGHAI) INC., priority 2017, dated 2021).
pIC50: −log10 of the molar value.

What was measured:
Experiment in all cases: Enzyme assay for inhibition of CDK protein in vitro (Z-LYTE)
Assay type in all cases: biochemical
[1] = target: T1, CDK1/cyclin B (Homo sapiens, UniProt P06493)
T1 construct: purchased Invitrogen, USA
Protocol: (§1) Compounds 1 and 14 diluted in DMSO were mixed with detected CDK protein (Invitrogen, USA) respectively, incubated at room temperature for 30 minutes; and then mixed with Kinase/Z-LYTE™ Peptide Substrate Mixture (Invitrogen, USA) and 4×ATP. The mixed system was transferred to a 384-well white opaque plate to react for 1 hour at room temperature; 5 μL of Development Solution (Invitrogen, USA) was added to react at room temperature for 1 hour, and finally Stop Reagent (Invitrogen, USA) was added to terminate the reaction and MD SpectraMax I3× microplate reader (Molecular Devices, USA) was used to read fluorescence values.

[2] = target: T2, CDK16/cyclin Y (Homo sapiens, UniProt Q00536)
T2 construct: purchased Invitrogen, USA
Protocol: as §1

[3] = target: T3, CDK3/cyclin E1 (Homo sapiens, UniProt Q00526)
T3 construct: purchased Invitrogen, USA
Protocol: as §1

T3 sequence (Q00526 whole entry): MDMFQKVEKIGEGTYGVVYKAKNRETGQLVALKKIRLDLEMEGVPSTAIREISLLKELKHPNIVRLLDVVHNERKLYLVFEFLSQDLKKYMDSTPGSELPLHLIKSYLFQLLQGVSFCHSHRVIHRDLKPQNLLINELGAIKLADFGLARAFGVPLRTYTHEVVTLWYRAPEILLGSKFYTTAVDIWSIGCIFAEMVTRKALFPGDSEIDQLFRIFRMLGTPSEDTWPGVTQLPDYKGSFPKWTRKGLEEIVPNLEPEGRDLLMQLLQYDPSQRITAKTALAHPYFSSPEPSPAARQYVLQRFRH
T3 sequence (P24864 whole entry partner): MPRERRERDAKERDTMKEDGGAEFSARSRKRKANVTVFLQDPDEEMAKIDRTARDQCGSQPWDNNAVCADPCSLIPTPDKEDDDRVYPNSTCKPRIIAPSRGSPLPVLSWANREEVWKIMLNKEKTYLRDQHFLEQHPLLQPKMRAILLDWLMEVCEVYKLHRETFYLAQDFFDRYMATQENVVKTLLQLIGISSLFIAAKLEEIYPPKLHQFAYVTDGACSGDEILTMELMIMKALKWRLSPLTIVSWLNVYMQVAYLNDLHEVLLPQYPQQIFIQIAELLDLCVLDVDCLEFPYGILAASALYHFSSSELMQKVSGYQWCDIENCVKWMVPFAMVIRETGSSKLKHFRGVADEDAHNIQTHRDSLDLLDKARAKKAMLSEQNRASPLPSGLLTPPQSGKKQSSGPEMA
T2 sequence (Q00536 whole entry): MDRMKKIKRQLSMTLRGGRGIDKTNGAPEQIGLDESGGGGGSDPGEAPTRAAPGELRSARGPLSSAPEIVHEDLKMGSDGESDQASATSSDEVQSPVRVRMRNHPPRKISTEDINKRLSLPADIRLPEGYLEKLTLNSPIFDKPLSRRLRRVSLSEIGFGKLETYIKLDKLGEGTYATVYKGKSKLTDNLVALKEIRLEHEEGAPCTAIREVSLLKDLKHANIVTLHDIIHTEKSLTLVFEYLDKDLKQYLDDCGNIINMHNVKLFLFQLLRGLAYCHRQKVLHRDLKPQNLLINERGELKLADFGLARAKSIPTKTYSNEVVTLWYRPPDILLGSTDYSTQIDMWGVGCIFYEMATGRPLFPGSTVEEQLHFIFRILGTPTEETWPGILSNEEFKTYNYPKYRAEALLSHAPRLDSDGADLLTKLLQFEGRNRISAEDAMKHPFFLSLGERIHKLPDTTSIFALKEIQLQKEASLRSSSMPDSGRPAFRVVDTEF
T2 sequence (Q8ND76 whole entry partner): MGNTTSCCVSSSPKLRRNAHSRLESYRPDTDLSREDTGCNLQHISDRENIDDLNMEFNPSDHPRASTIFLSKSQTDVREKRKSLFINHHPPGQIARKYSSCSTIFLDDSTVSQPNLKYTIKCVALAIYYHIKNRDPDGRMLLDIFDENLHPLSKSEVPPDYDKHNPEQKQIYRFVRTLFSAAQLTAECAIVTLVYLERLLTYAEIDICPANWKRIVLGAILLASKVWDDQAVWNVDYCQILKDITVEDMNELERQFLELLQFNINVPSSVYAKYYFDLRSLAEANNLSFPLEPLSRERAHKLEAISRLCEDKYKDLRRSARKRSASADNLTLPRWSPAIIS
T1 sequence (P06493 whole entry): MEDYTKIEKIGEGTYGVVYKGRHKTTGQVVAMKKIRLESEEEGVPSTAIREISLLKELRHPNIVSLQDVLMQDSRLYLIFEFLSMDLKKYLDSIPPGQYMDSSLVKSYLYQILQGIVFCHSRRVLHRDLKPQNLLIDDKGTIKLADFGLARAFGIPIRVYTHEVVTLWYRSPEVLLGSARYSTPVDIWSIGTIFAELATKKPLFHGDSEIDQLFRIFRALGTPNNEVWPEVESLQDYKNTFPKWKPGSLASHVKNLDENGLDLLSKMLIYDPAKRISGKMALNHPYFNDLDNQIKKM
T1 sequence (P14635 whole entry partner): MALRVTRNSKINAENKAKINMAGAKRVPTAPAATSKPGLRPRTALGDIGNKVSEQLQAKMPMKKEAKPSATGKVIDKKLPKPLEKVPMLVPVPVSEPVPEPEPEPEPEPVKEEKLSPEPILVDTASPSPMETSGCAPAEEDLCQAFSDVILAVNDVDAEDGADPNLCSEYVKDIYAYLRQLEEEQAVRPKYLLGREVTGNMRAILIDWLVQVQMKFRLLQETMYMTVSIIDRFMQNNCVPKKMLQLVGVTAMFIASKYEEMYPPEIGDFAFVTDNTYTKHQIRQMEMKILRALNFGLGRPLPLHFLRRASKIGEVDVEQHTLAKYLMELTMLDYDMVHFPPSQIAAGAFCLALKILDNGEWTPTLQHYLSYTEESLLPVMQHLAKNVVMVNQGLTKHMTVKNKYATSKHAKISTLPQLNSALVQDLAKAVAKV

COC[C@@H](C)N[C@H]1CC[C@H](Nc2cc(-c3csc(NCC4(C#N)CCOCC4)n3)c(Cl)cn2)CC1 [Compound 1, 4-(((4-(5-chloro-2-(((1R,4r)-4-(((R)-1-methoxypropyl-2-yl)amino)cyclohexyl)amino)pyridin-4-yl)thiazol-2-yl)amino)methyl)tetrahydro-2H-pyran-4-carbonitrile]
pIC50 [1]: 5.27 | pIC50 [2]: 6.71 | pIC50 [3]: < 5.00
